According to patent US20250313560A1, “Novel bicyclic benzylamido pyridine derivatives as SOS1 inhibitors” (Boehringer Ingelheim International GmbH, priority 2024, published 2025):
Where two headings read alike, the source gives them in different places.

Assays:
SOS1 and KRAS G12C = SOS1 and KRAS G12C (Homo sapiens (Human), UniProt Q07889); experiment: KRAS::SOS1 AlphaScreen binding assay (KRAS G12C); details: average of at least two measurements
Procedure: (§1) Low IC50 values are indicative of high potency of the SOS1 inhibitor compound in this assay setting:
(§2) • GST-tagged SOS1 (564_1049_GST_TEV_ECO) produced in-house • 6xHis-Tev-K-RasG12D/G12C(1-169)Avi produced in-house • GDP (Sigma Cat No G7127) • AlphaLISA Glutathione Acceptor Beads (PerkinElmer, Cat No AL109) • AlphaScreen Streptavidin Donor Beads (PerkinElmer Cat No 6760002) • Assay plates: Proxiplate-384 PLUS, white (PerkinElmer, Cat No 6008289)
(§3) [formula] • KRAS::SOS1 GDP mix: • 7.5 nM (final assay concentration) K-RasG12C, 10 nM (final assay concentration) K-RasG12D, 10 μM (final assay concentration) GDP and 5 nM (final assay concentration) GST-SOS1 are mixed in assay buffer prior to use and kept at rt. Bead mix: • AlphaLISA Glutathione Acceptor Beads and AlphaScreen Streptavidin Donor Beads are mixed in the dark in assay buffer at a concentration of 10 μg/mL (final assay concentration) each prior to use and kept at rt.
(§4) Compounds are diluted to a final start concentration of 100 μM and are tested in duplicate. Assay-ready plates (ARPs) are generated using an Access Labcyte Workstation with a Labcyte Echo 550 or 555 acoustic dispenser. For compound a start concentration of 100 μM, 150 nL of compound solution is transferred per well in 11 concentrations in duplicate with serial 1:5 dilutions.
(§5) The assay is run using a fully automated robotic system in a darkened room below 100 Lux. 10 μL of KRAS::SOS1 GDP mix is added into columns 1-24 to the 150 nL of compound solution (final dilution in the assay 1:100, final DMSO concentration 1%).
(§6) After a 30 minute incubation time, 5 μL of bead mix is added into columns 1-23. Plates are kept at rt in a darkened incubator. After a further 60 minutes incubation, the signal is measured using a PerkinElmer Envision HTS Multilabel Reader using the AlphaScreen specifications from PerkinElmer. Each plate contains the following controls:
(§7) diluted DMSO+KRAS::SOS1 GDP mix+bead mix
(§8) diluted DMSO+KRAS::SOS1 GDP mix
(§9) Result calculation: IC50 values are calculated and analyzed using a 4 parametric logistic model.
(§10) Table 1: Inhibition values for KRAS G12C as well as for KRAS G12D. […] The value indicates an average value of at least two measurements.

SOS1 and KRAS G12D = SOS1 and KRAS G12D (Homo sapiens (Human), UniProt Q07889); experiment: KRAS::SOS1 AlphaScreen binding assay (KRAS G12D); details: average of at least two measurements
Procedure: as §1, §2, §3, §4, §5, §6, §7, §8, §9, §10

[1] = system: ERK phosphorylation in NCI-H358 SOS2 KO cells (KRAS G12C); experiment: Erk phosphorylation assay; type: cell-based, human; details: EGF stimulated, average of at least two measurements, read-out: pERK IC50
Procedure: Low IC50 values are indicative of high potency of the SOS1 inhibitor compounds in this assay setting.
ERK phosphorylation assays are performed using the following human cell line: • NCI-H358 SOS2 KO (Hofmann, Gmachl, Ramharter et al, Cancer Discov. 2021, 11(1):142-15): human lung cancer with a KRAS G12C mutation;
NCI-H358 SOS2 KO are seeded at 50000 cells per well in 60 μL of DMEM with 2% FBS, in Greiner TC 384 plates. The cells are incubated overnight in an incubator at 37° C. and 5% CO2 in a humidified atmosphere. 60 nL compound solution (10 mM DMSO stock solution) is then added using a Beckman Coulter Labcyte Echo 550 device. After 50 min incubation in the aforementioned incubator, 5 nl EGF are added to each well for a final concentration of approx. 8 ng/mL using a Beckman Coulter Labcyte Echo 550 device and cells are incubated for another 10-15 minutes before lysis. The medium is removed, and the cells are lysed by addition of 20 μL of 1.6-fold lysis buffer from the AlphaLISA SureFire Ultra pERK1/2 (Thr202/Tyr204) Assay Kit with added protease inhibitors. After 20 minutes of incubation at rt with shaking, 6 μL of each lysate sample is transferred to a 384-well Proxiplate and analyzed for pERK (Thr202/Tyr204) with the AlphaLISA SureFire Ultra pERK1/2 (Thr202/Tyr204) Assay Kit. 3 μL Acceptor Mix and 3 μL Donor Mix are added under subdued light and incubated for 2 h at rt in the dark, before the signal is measured on a Perkin Elmer Envision plate reader using 384 AlphaScreen settings for Proxiplates. Data are fitted by iterative calculation with variable hill slope. The sigmoidal curve slope is fitted using a default fitting curve to ascertain IC50 values.
Table 2: Erk Phosphorylation assay. The value indicates an average value of at least two measurements.

P450 3A4 = P450 3A4 (Homo sapiens (Human), UniProt P08684); experiment: Cytochrome P450 isoenzyme inhibition assay (P450 3A4, midazolam); type: in vitro ADME; details: human liver microsomes, Midazolam as substrate; read-out: CYP3A4 inhibition IC50
Procedure: For the following cytochrome P450 isoenzymes, these substrates and metabolic reactions are monitored: P450 3A4: hydroxylation of Midazolam (MDZ).
The final incubation volume contains TRIS buffer (0.1 M), MgCl2 (5 mM), a certain concentration of human liver microsomes dependent on the P450 isoenzyme measured (P450 3A4: 0.1 mg/ml) and a certain concentration of the individual substrate for each isoenzyme (P450 3A4: Midazolam 5 μM).
The effect of the test compound is determined at five different concentrations in duplicate (e.g. highest concentration 50 μM with subsequent serial 1:4 dilutions) or without test compound (high control). Following a short preincubation period, reactions are started with the cofactor (NADPH, 1 mM) and stopped by cooling the incubation down to 8° C. and subsequently by addition of one volume of ACN. An internal standard solution—usually the stable isotope of the formed metabolite—is added after quenching of incubations. Peak area analyte (=metabolite formed) and internal standard is determined by LC-MS/MS. The resulting peak area ratio analyte to internal standard in these incubations is compared to a control activity containing no test compound. Within each of the assay runs, the IC50 of a positive control inhibitor dependent on the P450 isoenzyme measured (P450 3A4: ketoconazole) is determined. The assay results are plotted against compound concentrations to calculated IC50 values (half maximal inhibitory concentrations) for inhibitory compounds utilizing Software IDBS E-WorkBook.
Table 4: Inhibition of P450 isoenzyme 3A^4.

human hepatocytes = experiment: Metabolic stability in human hepatocytes; details: 1 μM test compound, 50% human serum, percentage of liver blood flow
Procedure: The metabolic degradation of a test compound is performed with hepatocytes in suspension. After recovery from cryopreservation, human hepatocytes are diluted in Dulbecco's modified eagle medium (supplemented with 3.5 μg glucagon/500 mL, 2.5 mg insulin/500 mL, 3.75 mg hydrocortisone/500 mL, 50% human serum) to obtain a final cell density of 1.0×10^6 cells/mL. Following a preincubation in a cell culture incubator (37° C., 10% CO2), test compound dissolved in DMSO is mixed with the hepatocyte suspension, resulting in a final test compound concentration of 1 μM and a final DMSO concentration of 0.05%.
The cell suspension is incubated at 37° C. (cell culture incubator, horizontal shaker) and samples are removed from the incubation after 0, 0.5, 1, 2, 4 and 6 hours. Samples are quenched with acetonitrile (containing internal standard) and pelleted by centrifugation. The supernatant is transferred to a deep-well plate and prepared for analysis of decline of parent compound by HPLC-MS/MS.
The percentage of remaining test compound is calculated using the peak area ratio (test compound/internal standard) of each incubation time point relative to the time point 0 peak area ratio. The log-transformed data are plotted versus incubation time, and the absolute value of the slope obtained by linear regression analysis is used to estimate in vitro half-life (T1/2).
CL_[sequence]_IN VIVO[mL/min/kg]=(CL_[sequence][μL/min/10^6cells]×hepatocellularity[10^6cells/g liver]×liver factor[g/kg body weight])/1000
Hepatic in vivo blood clearance (CL) is predicted according to the well-stirred liver model considering an average liver blood flow (QH) of 20.7 mL/min/kg:
CL[mL/min/kg]=CL_[sequence]_IN VIVO[mL/min/kg]×hepatic blood flow[mL/min/kg]/(CL_[sequence]_IN VIVO[mL/min/kg]+hepatic blood flow[mL/min/kg])
Results are expressed as percentage of hepatic blood flow:
QH[%]=CL[mL/min/kg]/hepatic blood flow[mL/min/kg])

CYP3A4 = CYP3A4 (Homo sapiens (Human), UniProt P08684); experiment: Mechanism-based inhibition of CYP3A4 assay (MBI 3A4); type: in vitro ADME; details: human liver microsomes, midazolam substrate, hydroxy-midazolam formation after 30 min preincubation relative to 0 min; for inhibition at 30 min: human, probe midazolam 15 μM (hydroxy-midazolam formation), read-out: MBI inhibition % ctrl. [%] with MDZ
Procedure: Mechanism-Based Inhibition of CYP3A4 assay (MBI 3A4): The mechanism-based inhibition towards CYP3A4 is assayed in human liver microsomes with midazolam as substrate. The test compounds and water control (wells w/o test compound) are preincubated in presence of NADPH (1 mM) with human liver microsomes (0.2 mg/mL) at a concentration of 0, 5 and 25 μM for 0, 10 and 30 min. After preincubation, the incubate is diluted 1:10 (to 0.02 mg/mL) and the substrate midazolam (15 μM) is added for the main incubation (10 min). The main incubation is quenched with ACN and the formation of hydroxy-midazolam is quantified via LC/MS-MS. The formation of hydroxy-midazolam from the 30 min preincubation relative to the formation from the 0 min preincubation is used as a readout. Values of less than 100% mean that the substrate midazolam is metabolized to a lower extent upon 30 min preincubation compared to 0 min preincubation. In general, low effects upon 30 min preincubation are desired (corresponding to values close to 100%/not different to the values determined with water control).
Table 5: Mechanism-based inhibition of P450 isoenzyme 3A4 with midazolam as substrate.

[2] = Homo sapiens, NCI-H358, NCI-H358 SOS2 KO cells

CYP3A4, sequence (P08684 whole entry): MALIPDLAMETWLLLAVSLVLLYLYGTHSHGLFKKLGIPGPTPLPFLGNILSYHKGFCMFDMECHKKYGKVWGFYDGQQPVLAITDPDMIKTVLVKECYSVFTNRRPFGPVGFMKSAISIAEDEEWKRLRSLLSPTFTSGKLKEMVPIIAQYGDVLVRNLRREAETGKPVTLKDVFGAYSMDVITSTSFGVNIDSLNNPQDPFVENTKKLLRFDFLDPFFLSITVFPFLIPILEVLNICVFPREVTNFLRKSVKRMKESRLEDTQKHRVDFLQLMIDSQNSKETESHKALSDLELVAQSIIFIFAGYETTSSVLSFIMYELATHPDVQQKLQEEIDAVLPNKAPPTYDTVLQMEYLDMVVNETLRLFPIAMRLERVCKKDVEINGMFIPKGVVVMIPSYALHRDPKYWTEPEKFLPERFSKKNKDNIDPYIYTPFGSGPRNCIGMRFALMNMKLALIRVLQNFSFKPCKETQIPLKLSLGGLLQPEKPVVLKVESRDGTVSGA
P450 3A4, sequence (P08684 whole entry): as above
SOS1 and KRAS G12D, sequence (Q07889 564-1049, stated change not applied): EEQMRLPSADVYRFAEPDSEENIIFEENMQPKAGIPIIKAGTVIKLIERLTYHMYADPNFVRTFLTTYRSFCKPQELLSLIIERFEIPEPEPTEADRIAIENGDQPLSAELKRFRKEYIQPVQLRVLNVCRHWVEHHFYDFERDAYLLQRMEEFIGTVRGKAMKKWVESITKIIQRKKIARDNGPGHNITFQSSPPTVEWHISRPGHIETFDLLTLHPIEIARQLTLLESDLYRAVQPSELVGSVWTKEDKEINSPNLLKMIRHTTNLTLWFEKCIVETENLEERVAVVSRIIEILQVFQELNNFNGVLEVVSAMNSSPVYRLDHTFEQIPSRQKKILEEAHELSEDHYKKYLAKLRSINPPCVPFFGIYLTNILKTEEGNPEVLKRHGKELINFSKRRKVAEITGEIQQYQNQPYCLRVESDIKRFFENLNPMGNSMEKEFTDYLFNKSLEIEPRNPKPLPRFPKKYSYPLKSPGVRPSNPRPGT
SOS1 and KRAS G12C, sequence (Q07889 564-1049, stated change not applied): as above

| Compound | IC50 (SOS1 and KRAS G12C) [nM] | IC50 (SOS1 and KRAS G12D) [nM] | IC50 [1, 2] [nM] | IC50 (P450 3A4) [nM] | Hepatic clearance - QH[%] in human hepatocytes (human hepatocytes) [%] | IC50 ([1]; NCI-H358 SOS2 KO cells) [nM] | inhibition at 30 min (CYP3A4) [%] | MBI inhibition % ctrl. [%] with MDZ (CYP3A4) [%] |
| --- | --- | --- | --- | --- | --- | --- | --- | --- |
| C[C@@H](NC(=O)c1cc(N2CCC(N3CC4CC4C3CO)CC2)c2ncnn2c1)c1cccc(C(F)F)c1F (single isomer, unassigned) [Example cis-E11a] | 22 | 15 | 173 | > 50000 | 38 | – | – | – |
| C[C@@H](NC(=O)c1cc(N2CCC(N3CCO[C@H](CO)C3)CC2)c2ncnn2c1)c1cccc(C(F)F)c1F [Example E14] | 69 | 51 | 490 | > 50000 | 31 | – | – | – |
| C[C@@H](NC(=O)c1cc(N2CCC(N3CCCC(O)CC3)CC2)c2ncnn2c1)c1cccc(C(F)F)c1F (single isomer, unassigned) [Example E17a] | 39 | 28 | – | > 50000 | 13 | 94 | – | – |
| C[C@@H](NC(=O)c1cc(N2CC3CCC(C2)N3C)c2nncn2c1)c1cccc(C(F)(F)F)c1F [Example E76] | 49 | 36 | 230 | > 50000 | – | – | 84 | – |
| C[C@@H](NC(=O)c1cc(N2CCC(N(C)CC3(O)CC3)CC2)c2ncnn2c1)c1cccc(C(F)F)c1F [Example E13] | 52 | 54 | 288 | > 50000 | 21 | – | – | – |
| C[C@@H](NC(=O)c1cc(N2CCC(NC3COCC3O)CC2)c2ncnn2c1)c1cccc(C(F)(F)F)c1F (single isomer, unassigned) [Example cis-E41a] | 50 | 38 | – | > 50000 | 37 | 463 | – | – |
| C[C@@H](NC(=O)c1cc(N2CCC3CCNC3C2)c2ncnn2c1)c1cccc(C(F)(F)F)c1F (single isomer, unassigned) [Example cis-E52a] | 59 | 58 | – | > 50000 | 7 | 115 | – | – |
| C[C@@H](NC(=O)c1cc(N2CCC(NC3CCCC3(C)O)CC2)c2ncnn2c1)c1cccc(C(F)(F)F)c1F (single isomer, unassigned) [Example trans-E53a] | 24 | 24 | – | > 50000 | 45 | 143 | – | – |
| CC(C)N1CC=C(c2cc(C(=O)N[C@H](C)c3cccc(C(F)(F)F)c3F)cn3cnnc23)CC1 [Example E83] | 30 | 26 | 132 | > 50000 | – | – | 86 | – |
| C[C@@H](NC(=O)c1cc(N2CCC(N3CCCC(O)CC3)CC2)c2ncnn2c1)c1cccc(C(F)(F)F)c1F (stereo partly shown) [Example E43b] | – | – | – | – | 25 | – | – | – |
| C[C@@H](NC(=O)c1cc(N2CCC(N3CCC4(CC4)C3)CC2)c2ncnn2c1)c1cccc(C(F)(F)F)c1F [Example E33] | 80 | 73 | 326 | > 50000 | 15 | – | – | – |
| C[C@@H](NC(=O)c1cc([C@H]2CC[C@H](N3CCC(F)C(O)C3)CC2)c2ncnn2c1)c1cccc(C(F)(F)F)c1F (single isomer, unassigned) [Example trans-E70a] | 29 | 34 | 259 | > 50000 | 25 | – | – | – |
| C[C@@H](NC(=O)c1cc(N2CCC(N3CC4CC4C3CO)CC2)c2ncnn2c1)c1cccc(C(F)F)c1F (single isomer, unassigned) [Example cis-E11b] | 28 | 19 | – | > 50000 | 27 | 145 | – | – |
| C[C@@H](NC(=O)c1cc(N2CCC(N3CCCC(O)CC3)CC2)c2ncnn2c1)c1cccc(C(F)(F)F)c1F (single isomer, unassigned) [Example E43b] | 34 | 35 | – | > 50000 | – | 101 | – | 94 |
| C[C@@H](NC(=O)c1cc(N2CCC(N3CCO[C@@H](CO)C3)CC2)c2ncnn2c1)c1cccc(C(F)F)c1F [Example E15] | 68 | 46 | 554 | > 50000 | 31 | – | – | – |
| C[C@@H](NC(=O)c1cc(N2CCC(N3CCCCC3)CC2)c2ncnn2c1)c1cccc(C(F)(F)F)c1F [Example E49] | 49 | 43 | 250 | > 50000 | 23 | – | – | – |
